# Reference: the supplement of paper PMC11208160
# Assay: recombinant barcode read abundance after kanamycin selection (control-corrected) (log10(CPM+1)); higher = more efficient recombination; sequences stand for … in AGTGCAGAGAAAATCGGCCAGTTTTCTCTGCCTGCAGTCCGCATGCCGT…AGATTTATGCAGCGGACTGCCTTTCTCCCAAAGTGATAAACCGGACAGTATCATGGACCGGTTTTCCCGGTAATCCGTATTTGCAAGGTTGGTTTCACT; site = the 11-nt target
# Procedure, shortened: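 Duplicate cultures were plated either on chloramphenicol/ampicillin LB agar, serving as control, or on chloramphenicol/ampicillin/kanamycin with 0.1 mM IPTG. These came from a pooled E. coli library co-electroporated with a donor plasmid, each member pairing a target with an IS621 bridge RNA target-binding loop. Recombination efficiency equals averaged, control-corrected counts per million of recombinant-junction barcodes. It is listed as log10(CPM+1).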
# 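Further: IS621 recombinase and bridge RNA in Escherichia coli cells.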
row,Sequence,recombinant barcode read abundance (log10)
1,GCTCGTCCTTGGGTTCTAACCTGTTGCAT (site GCTCGTCCTAT),1.03
2,GCTCGTCCTTGGGTTCTAACCTGTTGCAT (site GCTGGACCTAT),0.0399
3,GCTCTCCCTTGGGTTCTAACCTGTTGCCT (site GCACTCCCTAG),0.0891
4,GCTCTCCCTTGGGTTCTAACCTGTTGCCT (site GCCCTCCCTAG),0.388
5,GCTCTCCCTTGGGTTCTAACCTGTTGCCT (site GCGCTCCCTAG),0.253
6,GCTCTCCCTTGGGTTCTAACCTGTTGCCT (site GCTCTCCCTAG),0.305
7,GCTGGACCTTGGGTTCTAACCTGTTGCCT (site ACTGGACCTAA),0.179
8,GCTGGACCTTGGGTTCTAACCTGTTGCCT (site GCTGGACCTAG),2.15
9,GCTTCACCTTGGGTTCTAACCTGTTGCCT (site GCTTCACCTAG),0.853
10,GCTTCACCTTGGGTTCTAACCTGTTGCCT (site GCTTTACCTAA),0.103
11,GCTTGGACTTGGGTTCTAACCTGTTGCAT (site GCTTGGACTAT),1.29
12,GCTTGGACTTGGGTTCTAACCTGTTGCAT (site GTTTGGACTCT),0.0332
13,GCTTTACCTTGGGTTCTAACCTGTTGCTT (site GCTTCACCTAG),0.132
14,GCTTTACCTTGGGTTCTAACCTGTTGCTT (site GCTTTACCTAA),0.368
15,GCTTTGACTTGGGTTCTAACCTGTTGCCT (site GCTTGGACTAG),0.0213
16,GCTTTGACTTGGGTTCTAACCTGTTGCCT (site GCTTTGACTAG),0.788
17,GGAAAGACTTGGGTTCTAACCTGTTGCAC (site GGAAAGACTGT),2.02
18,GGAAAGACTTGGGTTCTAACCTGTTGCAC (site TACCGCCCTAC),0.128

row,Sequence,recombinant barcode read abundance (log10)
1,GGAACCTCTTGGGTTCTAACCTGTTGCTT (site GGAACCTCTAA),0.697
2,GGAACCTCTTGGGTTCTAACCTGTTGCTT (site GGAACGTCTAA),0.0112
3,GGAAGACCTTGGGTTCTAACCTGTTGCTA (site GGAAGACCTTA),0.956
4,GGAAGACCTTGGGTTCTAACCTGTTGCTA (site GGAGGACCTAA),0.246
5,GGAATCCCTTGGGTTCTAACCTGTTGCCT (site GGAATACCTAG),0.0974
6,GGAATCCCTTGGGTTCTAACCTGTTGCCT (site GGAATCCCTAG),1.64
7,GGAATCCCTTGGGTTCTAACCTGTTGCCT (site GGAATGCCTAG),0.463
8,GGAATCCCTTGGGTTCTAACCTGTTGCCT (site GGAATTCCTAG),0.0836
9,GGACAGTCTTGGGTTCTAACCTGTTGCGT (site CCGGTCCCTCT),0.485
10,GGACAGTCTTGGGTTCTAACCTGTTGCGT (site GGACAGTCTAC),2.56
11,GGACCTCCTTGGGTTCTAACCTGTTGCCT (site GGACCTCCTAA),0.336
12,GGACCTCCTTGGGTTCTAACCTGTTGCCT (site GGACCTCCTAC),0.251
13,GGACCTCCTTGGGTTCTAACCTGTTGCCT (site GGACCTCCTAG),1.32
14,GGACCTCCTTGGGTTCTAACCTGTTGCCT (site GGACCTCCTAT),0.524
15,GGACGACCTTGGGTTCTAACCTGTTGCCT (site GGACGACCTAG),2.26
16,GGACGACCTTGGGTTCTAACCTGTTGCCT (site GGACGCCCTAG),0.102
17,GGACGACCTTGGGTTCTAACCTGTTGCCT (site GGACGGCCTAG),0.412
18,GGACGACCTTGGGTTCTAACCTGTTGCCT (site GGACGTCCTAG),0.163
